# Measured values published in PMC9090415, “Discovery of small molecule inhibitors of Plasmodium falciparum apicoplast DNA polymerase” (Journal of Enzyme Inhibition and Medicinal Chemistry, 2022).
# Molecular target: P. falciparum apicoplast DNA polymerase (Pf-apPOL) (Plasmodium falciparum, UniProt Q8ILY1)
# Test: Fluorescence-based high-throughput DNA polymerase assay (molecular beacon), primary screen and dose-response
# Format: biochemical
# Settings: for DNA Pol: 90 min, 10 µM; for % inhibition apPOL 180' 2.5 / % inhibition apPOL 180' 5 / % inhibition apPOL 180' 10 / % inhibition apPOL 180' 20 / % inhibition apPOL 180' 40 / % inhibition apPOL 180' 80: read at 180'
# Method in brief: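 Single-point screening used 10 µM compound with 20 nM polymerase, 20 nM hairpin substrate and 6 µM dNTPs for 90 min at 25 °C. Confirmatory titrations (2.5–80 µM) followed fluorescence at three times, and IC50 was derived from a fit including a cooperativity term n.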
# P. falciparum apicoplast DNA polymerase (Pf-apPOL), sequence (Q8ILY1 entry or part of it): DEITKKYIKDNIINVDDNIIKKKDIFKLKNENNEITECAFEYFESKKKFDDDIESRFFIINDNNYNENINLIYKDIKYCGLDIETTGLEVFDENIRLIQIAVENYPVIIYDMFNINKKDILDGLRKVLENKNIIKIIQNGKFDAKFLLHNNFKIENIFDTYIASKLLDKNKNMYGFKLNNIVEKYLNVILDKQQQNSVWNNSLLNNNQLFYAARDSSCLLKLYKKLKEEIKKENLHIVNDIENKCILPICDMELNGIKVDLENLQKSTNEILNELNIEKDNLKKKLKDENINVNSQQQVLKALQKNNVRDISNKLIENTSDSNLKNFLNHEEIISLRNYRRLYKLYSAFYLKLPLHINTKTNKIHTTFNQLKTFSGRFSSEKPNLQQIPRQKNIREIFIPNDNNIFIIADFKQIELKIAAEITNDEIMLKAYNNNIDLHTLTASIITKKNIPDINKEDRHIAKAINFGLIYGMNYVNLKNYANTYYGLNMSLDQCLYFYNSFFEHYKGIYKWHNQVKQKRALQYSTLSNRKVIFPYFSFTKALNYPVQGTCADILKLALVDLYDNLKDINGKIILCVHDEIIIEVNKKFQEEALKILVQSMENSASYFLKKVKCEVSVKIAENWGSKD
structure (smiles),measurement,setting,value
"COc1ccc(/C=C/c2cc(C(=O)O)c3ccccc3n2)cc1 [Molecule 5, COc1ccc(cc1)/C=C/c1nc2ccccc2c(c1)C(=O)O]",DNA Pol,"186 hits, DNA Pol (screen value), unit not given",61
same,DNA Pol,"'DNA Pol' (screen value), unit not given",61
same,% inhibition Apo pol 10' 2.5,"DRC-1, read at 10', concentration 2.5",43.4862%
same,% inhibition Apo pol 10' 5,"DRC-1, read at 10', concentration 5",53.3879%
same,% inhibition Apo pol 10' 10,"DRC-1, read at 10', concentration 10",61.7052%
same,% inhibition Apo pol 10' 20,"DRC-1, read at 10', concentration 20",65.8277%
same,% inhibition Apo pol 10' 40,"DRC-1, read at 10', concentration 40",71.2771%
same,% inhibition Apo pol 10' 80,"DRC-1, read at 10', concentration 80",72.4327%
same,% inhibition Apol 90' 2.5,"DRC-1, read at 90', concentration 2.5",35.7188%
same,% inhibition Apol 90' 5,"DRC-1, read at 90', concentration 5",44.8099%
same,% inhibition Apol 90' 10,"DRC-1, read at 90', concentration 10",55.1819%
same,% inhibition Apol 90' 20,"DRC-1, read at 90', concentration 20",60.94%
same,% inhibition Apol 90' 40,"DRC-1, read at 90', concentration 40",68.5014%
same,% inhibition Apol 90' 80,"DRC-1, read at 90', concentration 80",67.8921%
same,% inhibition apPOL 180' 2.5,"DRC-1, concentration 2.5",28.4361%
same,% inhibition apPOL 180' 5,"DRC-1, concentration 5",35.945%
same,% inhibition apPOL 180' 10,"DRC-1, concentration 10",46.8104%
same,% inhibition apPOL 180' 20,"DRC-1, concentration 20",54.1695%
same,% inhibition apPOL 180' 40,"DRC-1, concentration 40",63.6204%
same,% inhibition apPOL 180' 80,"DRC-1, concentration 80",63.471%
same,% inhibition Apo pol 5',"DRC-2, concentration 20",38%
same,% inhibition Apol 40',"DRC-2, concentration 2.5",46%
same,% inhibition Apol 40',"DRC-2, concentration 5",36%
same,% inhibition Apol 40',"DRC-2, concentration 20",46%
same,% inhibition Apol 40',"DRC-2, concentration 80",38%
same,% inhibition ApPOL 90',"DRC-2, concentration 2.5",45%
same,% inhibition ApPOL 90',"DRC-2, concentration 5",36%
same,% inhibition ApPOL 90',"DRC-2, concentration 20",46%
same,% inhibition apPOL 180',"DRC-2, concentration 20",38%
same,% inhibition apPOL 180',"DRC-2, concentration 80",45%
same,% inhibition Apo pol 5' 2.5,"DRC-2, read at 5', concentration 2.5",37%
same,% inhibition Apo pol 5' 5,"DRC-2, read at 5', concentration 5",31%
same,% inhibition Apo pol 5' 10,"DRC-2, read at 5', concentration 10",8.56%
same,% inhibition Apo pol 5' 20,"DRC-2, read at 5', concentration 20",38%
same,% inhibition Apo pol 5' 40,"DRC-2, read at 5', concentration 40",43%
same,% inhibition Apo pol 5' 80,"DRC-2, read at 5', concentration 80",14%
same,% inhibition Apol 40' 2.5,"DRC-2, read at 40', concentration 2.5",46%
same,% inhibition Apol 40' 5,"DRC-2, read at 40', concentration 5",36%
same,% inhibition Apol 40' 10,"DRC-2, read at 40', concentration 10",-66%
same,% inhibition Apol 40' 20,"DRC-2, read at 40', concentration 20",46%
same,% inhibition Apol 40' 40,"DRC-2, read at 40', concentration 40",55%
same,% inhibition Apol 40' 80,"DRC-2, read at 40', concentration 80",38%
same,% inhibition ApPOL 90' 2.5,"DRC-2, read at 90', concentration 2.5",45%
same,% inhibition ApPOL 90' 5,"DRC-2, read at 90', concentration 5",36%
same,% inhibition ApPOL 90' 10,"DRC-2, read at 90', concentration 10",-90%
same,% inhibition ApPOL 90' 20,"DRC-2, read at 90', concentration 20",46%
same,% inhibition ApPOL 90' 40,"DRC-2, read at 90', concentration 40",56%
same,% inhibition ApPOL 90' 80,"DRC-2, read at 90', concentration 80",44%
same,% inhibition apPOL 180' 2.5,"DRC-2, concentration 2.5",34%
same,% inhibition apPOL 180' 5,"DRC-2, concentration 5",25%
same,% inhibition apPOL 180' 10,"DRC-2, concentration 10",-139%
same,% inhibition apPOL 180' 20,"DRC-2, concentration 20",38%
same,% inhibition apPOL 180' 40,"DRC-2, concentration 40",50%
same,% inhibition apPOL 180' 80,"DRC-2, concentration 80",45%
"Cc1ccc(NC(=O)C2CCN(C(=O)c3cc4ccsc4[nH]3)CC2)c(Br)c1 [Molecule 14, O=C(C1CCN(CC1)C(=O)c1cc2c([nH]1)scc2)Nc1ccc(cc1Br)C]",DNA Pol,"""DNA Pol"" of the 186 hits list (screen value)",67
same,% inhibition Apo pol 10',"DRC-1, concentration 2.5",11%
same,% inhibition Apo pol 10',"DRC-1, concentration 5",36%
same,% inhibition Apo pol 10',"DRC-1, concentration 10",68%
same,% inhibition Apo pol 10',"DRC-1, concentration 20",88%
same,% inhibition Apo pol 10',"DRC-1, concentration 40",87%
same,% inhibition Apo pol 10',"DRC-1, concentration 80",89%
same,% inhibition Apol 90',"DRC-1, concentration 2.5",6%
same,% inhibition Apol 90',"DRC-1, concentration 5",22%
same,% inhibition Apol 90',"DRC-1, concentration 10",48%
same,% inhibition Apol 90',"DRC-1, concentration 20",76%
same,% inhibition Apol 90',"DRC-1, concentration 40",77%
same,% inhibition Apol 90',"DRC-1, concentration 80",84%
same,% inhibition apPOL 180',"DRC-1, concentration 2.5",5%
same,% inhibition apPOL 180',"DRC-1, concentration 5",12%
same,% inhibition apPOL 180',"DRC-1, concentration 10",30%
same,% inhibition apPOL 180',"DRC-1, concentration 20",61%
same,% inhibition apPOL 180',"DRC-1, concentration 40",63%
same,% inhibition apPOL 180',"DRC-1, concentration 80",75%
same,% inhibition Apo pol 5',"DRC-2, concentration 2.5",11%
same,% inhibition Apo pol 5',"DRC-2, concentration 5",22%
same,% inhibition Apo pol 5',"DRC-2, concentration 10",43%
same,% inhibition Apo pol 5',"DRC-2, concentration 20",50%
same,% inhibition Apo pol 5',"DRC-2, concentration 40",54%
same,% inhibition Apo pol 5',"DRC-2, concentration 80",48%
same,% inhibition Apol 40',"DRC-2, concentration 2.5",9%
same,% inhibition Apol 40',"DRC-2, concentration 5",22%
same,% inhibition Apol 40',"DRC-2, concentration 10",49%
same,% inhibition Apol 40',"DRC-2, concentration 20",62%
same,% inhibition Apol 40',"DRC-2, concentration 40",68%
same,% inhibition Apol 40',"DRC-2, concentration 80",67%
same,% inhibition ApPOL 90',"DRC-2, concentration 2.5",8.49%
same,% inhibition ApPOL 90',"DRC-2, concentration 5",18%
same,% inhibition ApPOL 90',"DRC-2, concentration 10",45%
same,% inhibition ApPOL 90',"DRC-2, concentration 20",61%
same,% inhibition ApPOL 90',"DRC-2, concentration 40",68%
same,% inhibition ApPOL 90',"DRC-2, concentration 80",70%
same,% inhibition apPOL 180',"DRC-2, concentration 2.5",2.63%
same,% inhibition apPOL 180',"DRC-2, concentration 5",12%
same,% inhibition apPOL 180',"DRC-2, concentration 10",34%
same,% inhibition apPOL 180',"DRC-2, concentration 20",52%
same,% inhibition apPOL 180',"DRC-2, concentration 40",64%
same,% inhibition apPOL 180',"DRC-2, concentration 80",69%
same,% inhibition Apo pol 10',"first DRC, concentration 2.5",11%
same,% inhibition Apo pol 10',"first DRC, concentration 10",68%
same,% inhibition Apol 90',"first DRC, concentration 5",22%
same,% inhibition Apol 90',"first DRC, concentration 10",48%
same,% inhibition apPOL 180',"first DRC, concentration 5",12%
same,% inhibition apPOL 180',"first DRC, concentration 20",61%
same,DNA Pol,"primary screen value, DNA Pol",67
